The values below come from US4820722A, “Disubstituted tetrazoles and their use as leukotriene antagonists” (Eli Lilly and Company, priority 1987, dated 1989).

SMILES strings stand for the structures.

For the first experiment, the system named is LTD4 evoked contractions of guinea pig ileum. The experiment is described as follows: LTD4 antagonism on isolated guinea pig ileum (inhibition of LTD4 evoked ileal contractions, single submaximal LTD4 responses). Format: cell-based, guinea pig (male Hartley). The settings on record: Cavia porcellus, 37° C., five minute exposure to drug, 2-4 concentrations, linear regression interpolation, read-out: -log IC50 (antagonist concentration that produced 50% inhibition of the LTD4 responses) (converted). The protocol:
Male, Hartley guinea pigs weighing 200-450 grams were killed by decapitation. A section of terminal ileum was removed, the lumen cleaned, and the tissue divided into 2.5 cm. segments. The ilea were mounted in 10 ml. tissue baths containing Krebs-bicarbonate solution of the following composition in mmoles/liter: KCl, 4.6; CaCl2 ·2H2 O, 1.2; KH2 PO4, 1.2; MgSO4 ·7H20, 1.2; NaCl, 118.2; NaHCO3, 24.8; and dextrose, 10.0. The bath fluid was maintained at 37° C. and aerated with 95 percent oxygen and 5 percent CO2. In addition, the buffer contained […] atropine to reduce ileal spontaneous activity. Isometric measurements were made with a Grass FTO3C force-displacement transducer and recorded on a Grass polygraph as change in grams of force. A passive force of 0.5 g. was applied to the tissues. After an appropriate equilibration period, single submaximal control responses to pure LTD4 were obtained. Following a five minute exposure of the ileum to an experimental drug, the control concentration of LTD4 was added to the tissue bath. The response of the ileum to LTD4 in the presence of the drug was compared to the response in the absence of the drug. Various degrees of LTD4 antagonism were obtained using 2-4 different concentrations of an experimental compound on a single ileum.
`CCCc1c(COc2ccc(Cc3nnnn3Cc3nnn[nH]3)cc2)ccc(C(C)=O)c1O` [Example 21]: the IC50 was 17.4 nM. The same measure, in the same setting: with `CCCc1c(COc2ccc(Cc3nnn(Cc4nnn[nH]4)n3)cc2)ccc(C(C)=O)c1O` [Example 22, 1-[2-hydroxy-3-(propyl)-4-[[4-[[2-(1H-tetra-zol-5-ylmethyl)-2H-tetrazol-5-yl]methyl]phenoxyl]methyl]phenyl]ethanone] the figure was 11.7 nM. The same measure, in the same setting: with `CCCc1c(COc2ccc(Cc3nnnn3CCCc3nnn[nH]3)cc2)ccc(C(C)=O)c1O` [Example 23] the figure was 14.1 nM; with `CCCc1c(COc2ccc(Cc3nnn(CCCc4nnn[nH]4)n3)cc2)ccc(C(C)=O)c1O` [Example 24, 1-2[-Hydroxy-3-propyl-4[[4-[[2-[3-(1H-tetra-zol-5-yl)propyl]-2H-tetrazol-5-yl]methyl]phenoxy]methyl]phenyl]ethanone], 3.8 nM; with `CCCc1c(COc2ccc(Cc3nnnn3CCCCc3nnn[nH]3)cc2)ccc(C(C)=O)c1O` [Example 25], 19.1 nM. On the same count and under the same terms, with `CCCc1c(COc2ccc(Cc3nnn(CCCCc4nnn[nH]4)n3)cc2)ccc(C(C)=O)c1O` [Example 26, 1-[2-Hydroxy-3-propyl-4-[[4-[[2-[4-(1H-tetrazol-5-yl)butyl]tetrazol-5-yl]methyl]phenoxy]methyl]phenyl]ethanone] the figure was 8.13 nM. As to `CCCc1c(COc2ccc(Cc3nnn(CC(=O)O)n3)cc2)ccc(C(C)=O)c1O` [Example 31, 5-[[4-[(4-Acetyl-3-hydroxy-2-propylphenyl)methoxy]phenyl]methyl]-2H-tetrazole-2-acetic acid], the IC50 was 28.2 nM.

For the molecule `CCCc1c(COc2ccc(Cc3nnnn3CCCC(=O)O)cc2)ccc(C(C)=O)c1O` [Example 32, 5-[[4-[[4-Acetyl-3-hydroxy-2-propylphenyl)methoxy]phenyl]methyl]-1H-tetrazole-1-butyric acid], the IC50 was 57.5 nM. Still for that read-out and setting: with `CCCc1c(COc2ccc(Cc3nnn(CCCC(=O)O)n3)cc2)ccc(C(C)=O)c1O` [Example 33, 5-[(4-[(4-Acetyl-3-hydroxy-2-propylphenyl)methoxy]phenyl)methyl]-2H-tetrazole-2-butanoic acid] the figure was 20 nM; with `CCCc1c(COc2ccc(Cc3nnnn3CCCCC(=O)O)cc2)ccc(C(C)=O)c1O` [Example 34, 5-[(4-[(4-Acetyl-3-hydroxy-2-propylphenyl)methoxy]phenyl)methyl]-1H-tetrazol-1-valeric acid], 55 nM; with `CCCc1c(COc2ccc(Cc3nnn(CCCCC(=O)O)n3)cc2)ccc(C(C)=O)c1O` [Example 35, 5-[(4-[(4-Acetyl-3-hydroxy-2-propylphenyl)methoxy]phenyl)methyl]-2H-tetrazole-2-valeric acid], 11.7 nM.

A further experiment deals with T1, LTD4 responses of guinea pig ileum and trachea (Cavia porcellus, UniProt Q2NNR5).
T1 sequence (Q2NNR5 1-340): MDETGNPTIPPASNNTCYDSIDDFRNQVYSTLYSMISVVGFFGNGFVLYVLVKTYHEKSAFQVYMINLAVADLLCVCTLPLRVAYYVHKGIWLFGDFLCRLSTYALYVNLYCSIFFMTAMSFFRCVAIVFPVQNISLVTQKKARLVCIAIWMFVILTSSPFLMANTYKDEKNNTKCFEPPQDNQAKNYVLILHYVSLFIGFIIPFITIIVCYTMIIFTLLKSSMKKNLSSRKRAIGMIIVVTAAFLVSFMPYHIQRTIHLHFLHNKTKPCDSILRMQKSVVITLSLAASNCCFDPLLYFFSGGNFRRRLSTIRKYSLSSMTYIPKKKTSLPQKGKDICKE
The experiment is described as follows: LTD4 antagonism, cumulative LTD4 concentration-response curves in guinea pig ileum and trachea (KB by Furthgott method). The settings on record: 30 minute incubation with antagonist, Table I title names ileal contractions. Format: cell-based, guinea pig (male Hartley).
For the molecule `CCCc1c(COc2ccc(Cc3nnn(CCCCCc4nnn[nH]4)n3)cc2)ccc(C(C)=O)c1O.[Na]`, the “pKB (negative log of the dissociation KB)” value came to 7.64. Same read-out and setting: with `CCCc1c(COc2ccc(Cc3nnn(CCCN(C)C)n3)cc2)ccc(C(C)=O)c1O` [Example 15, 5-[(4-((4-Acetyl-3-hydroxy-2-propylphenyl)methoxy)phenyl)methyl]-2-(3-(dimethylamino)propyl)-2H-tetrazole] the figure was 6.65. Still for that read-out and setting: with `CCCc1c(COc2ccc(Cc3nnnn3CCCN(C)C)cc2)ccc(C(C)=O)c1O` [Example 16, 5-[(4-((4-Acetyl-3-hydroxy-2-propylphenyl)methoxy)phenyl)methyl]-1-(3-(dimethylamino)propyl)-1H-tetrazole] the figure was 6.01. Same read-out and setting: with `CCCc1c(COc2ccc(Cc3nnn(CCCSC)n3)cc2)ccc(C(C)=O)c1O` [Example 17, 5-[(4-((4-Acetyl-3-hydroxy-2-propylphenyl)methoxy)phenyl)methyl]-2-(3-methylthiopropyl)-2H-tetrazole] the figure was 6.45. `CCCc1c(COc2ccc(Cc3nnn(CCCCCCc4nnn[nH]4)n3)cc2)ccc(C(C)=O)c1O` [Example 27, 1-[2-Hydroxy-3-propyl-4-[[4-[[2-[6-(1H-tetrazol-5-yl)hexyl]-2H-tetrazol-5-yl]methyl]phenoxy]methyl]phenyl]ethanone]: the “pKB (negative log of the dissociation KB)” value is 7.38. Still for that read-out and setting: with `CCCc1c(COc2ccc(Cc3nnn(CCC(C)(C)Cc4nnn[nH]4)n3)cc2)ccc(C(C)=O)c1O` [Example 28] the figure was 7.70. Consider `CCCc1c(COc2ccc(-c3nnn(CCCc4nnn[nH]4)n3)cc2)ccc(C(C)=O)c1O` [Example 36], for which the “pKB (negative log of the dissociation KB)” value is recorded as 7.63.

In the case of `CCCc1c(COc2ccc(-c3nnn(CCCN(C)C)n3)cc2)ccc(C(C)=O)c1O` [Example 37, 1-[4-[[4-[2-[3-(Dimethylamino)propyl]-2H-tetrazol-5-yl]phenoxy]methyl]-2-hydroxy-3-propylphenyl]ethanone], the “pKB (negative log of the dissociation KB)” value was found to be 6.37. Same read-out and setting: with `CCCc1c(COc2ccc(Cc3nnn(Cc4ccc(-c5nnn[nH]5)cc4)n3)cc2)ccc(C(C)=O)c1O` [Example 38, 1-[2-Hydroxy-3-propyl-4-[[4-[[2-[[4-(1H-tetrazol-5-yl)phenyl]methyl]-2H-tetrazol-5-yl]methyl]phenoxy]methyl]phenyl]ethanone] the figure was 7.90; with `CCCc1c(COc2ccc(Cc3nnn(CCC[S+](C)[O-])n3)cc2)ccc(C(C)=O)c1O` (stereo not shown) [Example 39, 5-[(4-((4-Acetyl-3-hydroxy-2-propylphenyl)methoxy)phenyl)methyl]-2-(3-methylsulfinylpropyl)-2H-tetrazole], 6.50. Same read-out and setting: with `CCCc1c(COc2ccc(Cc3nnn(CCCS(C)(=O)=O)n3)cc2)ccc(C(C)=O)c1O` [Example 40, 5-[(4-((4-Acetyl-3-hydroxy-2-propylphenyl)methoxy)phenyl)methyl]-2-(3-methylsulfonylpropyl)-2H-tetrazole] the figure was 6.37.
